Data: patent US20140336220A1, “COMPOSITION FOR PREVENTING OR TREATING OBESITY COMPRISING REBAMIPIDE” (The Catholic University of Korea Industry-Academic …, priority 2011, published 2014)
Entries after “also recorded” stand apart in the source; their conditions may differ.

Experiments:
STAT3 = STAT3 inhibition in spleen of obesity induced arthritis model, confocal microscope; type: in vivo, mouse; conditions: FIG. 16
Excerpt: In order to investigate whether or not rebamipide can inhibit STAT3, the inventors of the present disclosure extracted the spleen from a mouse in each group, and embedded a frozen section (optimal cutting temperature compound: O.C.T. compound) using the extracted spleen and rapidly cooled the tissue in liquid nitrogen and attached the tissue on a slide to a thickness of 7 μm using a cryo microtome. Then, the section was fixed with acetone and coated with 10% normal goat serum and blocked from a non-specific reaction for 30 minutes. Thereafter, the section was reacted at 4° C. overnight with primary antibodies, that is, FITC-labeled anti-mFoxp3 Ab, FITC labeled anti-mCD4 Ab, PE-labeled anti-p-STAT3 s727 Ab, and PE-labeled anti-p-STAT3 y705 Ab, diluted with PBS (pH 7.5) at a ratio of 1:50 for analyzing STAT3. On the next day, the section was washed with a PBS solution, and a stained tissue was analyzed with a confocal microscope.

[1] = tested on: animal models induced with obesity; assay: Adipocyte in liver frozen sections, haematoxylin and eosin and Oil red O staining; type: in vivo, mouse; conditions: oral administration, 51 days, H&E and Oil red O staining, vs control induced with obesity, FIG. 2
Experimental: In order to check fat inhibition effect of rebamipide, after supply of a high fat diet for 51 days was ended, a food was stopped at 12 hours before an experiment period was ended. Then, a frozen section (7 μm) obtained from a liver was haematoxylin and eosin staining and Oil red O staining. As a result of staining including the haematoxylin and eosin staining and Oil red O staining, it could be seen that in the liver obtained after oral administration with rebamipide, adipocyte were reduced as compared with a control induced with obesity (refer to FIG. 2).

[2] = tested on: Th17 cells and Treg cells in spleen; assay: Th17 and Treg cells in spleen sections, confocal microscope; type: in vivo, mouse; conditions: obese mice treated with rebamipide, FIG. 5A, 5B
Excerpt: In order to investigate whether or not rebamipide according to the present disclosure affected Th17 and Treg, the inventors of the present disclosure embedded a frozen section (optimal cutting temperature compound: O.C.T. compound) using the spleen of a mouse and rapidly cooled the tissue in liquid nitrogen and attached the tissue on a slide to a thickness of 7 μm using a cryo microtome. Then, the section was fixed with acetone and coated with 10% normal goat serum and blocked from a non-specific reaction for 30 minutes. Thereafter, the section was reacted at 4° C. overnight with primary antibodies, i.e. FITC-labeled anti-mFoxp3 Ab, PElabeled anti-mCD4 Ab, and APC-labeled anti-CD25 Ab, diluted with PBS (pH 7.5) at a ratio of 1:100 for Treg analysis and reacted with FITC-labeled anti-mCD4 Ab, and PE-labeled anti-mIL-17 for Th17 cell analysis. On the next day, the section was washed with a PBS solution, and a stained tissue was analyzed with a confocal microscope.

spleen cells = assay: Spleen cell proliferation after aCD3 stimulation, thymidine; type: cell-based, mouse; conditions: FIG. 7B
Experimental: The spleen was extracted from the mouse of each group and spleen cells 2×10^5 of each mouse were divided into a 96-well plate and stimulated with 0.5 μg/ml of aCD3 and then cultured for 3 days. 16 hours before acquirement, the cells were stimulated with thymidine of […], and then, 16 hours after stimulation, proliferation of the mouse cells was measured.

[3] = tested on: animal models induced with obesity; assay: Serum glucose, triglyceride and cholesterol by autoanalyzer; type: in vivo, mouse; conditions: oral administration, obese mice, FIG. 3
Experimental: Further, an experimental animal group was etherized and blood was collected from the heart. The collected blood was put into a centrifuge tube and centrifuged at 3000 rpm for 20 minutes, so that the serum was separated and kept in a freezer until it was analyzed at −70° C. Contents of glucose, triglyceride, total cholesterol, HDL-cholesterol, and LDL-cholesterol in the serum were analyzed using an autoanalyzer (Kuadro, Italy).

pre-adipocyte = assay: Adipocyte differentiation of pre-adipocyte, Oil red O analysis; type: cell-based; conditions: vs untreated cells, dependent on dose of rebamipide, FIG. 8
Experimental: In order to check whether or not rebamipide has a […] inhibition effect, the inventors of the present disclosure divided pre-adipocyte in an amount of 1.2×10^4/2 ml into a 24-well plate, and when the cells were completely packed, the cells were cultured again for 48 hours. After 48 hours, differentiation of adipocyte was induced with replacement of a culture medium added with dexamethasone, insulin, and isobutylmethylxanthine. In this case, rebamipide was also used to stimulate while being dissolved in DMSO. 3 days after differentiation, differentiation of adipocyte was maintained with replacement with a culture medium added with dexamethasone and insulin once per two days. After 4 days, Oil red O analysis was carried out.

[4] = tested on: animal group induced with obesity; assay: Brown fat to white fat ratio, interscapular region; type: in vivo, mouse; conditions: 30 mg/kg and 100 mg/kg, vs animal group induced with obesity, FIG. 10
Experimental: Thus, in order to check an effect of treatment with rebamipide on white fat and brown fat in vivo, the inventors of the present disclosure separated fat from an interscapular region of an animal group induced with obesity and a group treated with rebamipide with a dose of 30 mg/kg and 100 mg/kg and divided into white fat and brown fat. A weight of each of the white fat and the brown fat was measured, and an amount of the brown fat with respect to the white fat was calculated.

[5] = tested on: animal models induced with obesity; assay: Obesity improvement depending on dose: weight and liver; type: in vivo, mouse
Experimental: In order to check an obesity improvement effect depending on a treatment concentration of rebamipide, the inventors of the present disclosure orally administered rebamipide with a dose of 30 mg/kg and 100 mg/kg to an animal models induced with obesity prepared in Example 1 and then measured weights of the rebamipide treatment group and a mouse induced with obesity as a control group. For in vitro test, on the 63rd day after treatment with rebamipide, an experimental animal was killed and the liver of the mouse was extracted, and then, a size of the mouse and a weight of the liver were measured with the naked eye.

[6] = tested on: animal model with obesity induced arthritis; assay: Immunohistochemistry staining of inflammatory cytokines in joint; type: in vivo, mouse; conditions: immunochemical staining, vs obesity induced arthritis group, FIG. 14
Experimental: In order to check whether or not rebamipide of the present disclosure specifically can inhibit inflammatory cytokines such as IL-17, IL-6, IL-1b, TNF-a, and Nitrothyrosine in the joint of an animal model with obesity induced arthritis, the joint of a mouse was treated by the same method as illustrated in Example <9-2>. Then, inflammatory cytokines were stained by with an immunochemical staining method and analyzed with an optical microscope.

O=C(NC(Cc1cc(=O)[nH]c2ccccc12)C(=O)O)c1ccc(Cl)cc1 (centres unmarked) [rebamipide, 2-(4-chlorobenzoylamino)-3-[2(1H)-quinolinon-4-yl]propionic acid]
p-STAT3 s705 in spleen (STAT3): decreased | p-STAT3 s727 in spleen (STAT3): decreased | adipocyte in liver [1]: remarkably reduced | Treg cells in spleen [2]: increased | expression of Th17 in spleen [2]: reduced | effect on proliferation of spleen cells (spleen cells; 100 mg/kg oral, compared between doses): higher | proliferation of spleen cells (spleen cells; spleen cells of orally treated mice, 0.5 μg/ml aCD3, 3 days): inhibition of cell proliferation was decreased | HDL-cholesterol in serum [3]: slightly increased; also recorded: not statistically significant but increased | LDL-cholesterol in serum [3]: statistically significantly reduced; also recorded: statistically significantly decreased | glucose in serum [3]: statistically significantly reduced; also recorded: statistically significantly decreased | total cholesterol in serum [3]: statistically significantly reduced; also recorded: statistically significantly decreased | triglyceride in serum [3]: statistically significantly reduced; also recorded: statistically significantly decreased | differentiation of adipocyte (Oil red O) (pre-adipocyte): differentiation of adipocyte did not occur | ratio of the brown fat to the white fat [4]: increased | weight ([5]; 30 mg/kg and 100 mg/kg oral, vs control group, FIG. 6A): statistically reduced | weight reduction effect ([5]; 30 mg/kg oral, FIG. 6A): a weight reduction effect was illustrated | liver appearance ([5]; 100 mg/kg oral, 63rd day, FIG. 6B): bright red similarly to a liver of a normal control mouse | weight reduction effect ([5]; 100 mg/kg oral, FIG. 6A): highest | infiltration of IL-1b in joint [6]: inhibited | infiltration of IL-6 in joint [6]: inhibited | infiltration of IL-17 in joint [6]: inhibited | infiltration of Nitrothyrosine in joint [6]: inhibited | infiltration of TNF-a in joint [6]: inhibited
